Reference: patent US20040023994A1 (priority 2002, published 2004)
Marks after values point to notes of the source that are not given here.

Legend:
A-498 cells = test: MTT cytotoxicity assay; type: cell-based, human; conditions: Homo sapiens, A498; A-498, 72 h incubation, MTT
Description: (§1) Preliminary studies examining the in vitro cytotoxicity of cis-AVTP and trans-AVTG as compared to the parent drugs, were carried out using the 3-[4,5-dimethylthiazol-2-yl]-2,5-diphenyl tetrazolium bromide (MTT) cytotoxicity assay.

ACHN cells = test: MTT cytotoxicity assay; type: cell-based, human; conditions: Homo sapiens, 72 h incubation, MTT
Description: as §1

[1] = tested on: all the cell lines included in the screen; test: cells
Description: cis-AVTP and trans-AVTG were tested in National Cancer Institute's (NCI) 60 cell lines derived from leukemia, melanoma, lung, kidney cancers. Most chemotherapeutic agents currently nd 6-TG, have been tested in this screen and a database he National Institutes of Health. The NCI assigned s-AVTP, and number NSC-722289 to trans-AVTG. tocol used for the cytotoxicity assessment in the NCI e from the National Institutes of Health. Briefly, tumor ma, lung, colon, brain, ovary, breast, prostate, and um containing 5% fetal bovine serum and 2 mM L-glutamine re plated in a 100 μL volume into 96 well microtiter 37° C. in humidified atmosphere supplemented with 5% ach cell line were fixed with trichloroacetic acid for f drug addition (Tz). The drugs, as 400-fold concentrated uted to twice the final maximum test concentration with entamicin. Additional four 10-fold dilutions were made us control. Aliquots (100 μl) of the drug solutions were 100 μl of medium, resulting in the required final drug the plates were incubated at 37° C. in humidified for additional 48 h. The assay was terminated by the w/v) trichloroacetic acid for adherent and suspension minutes at 4° C. The supernatant was discarded, the and air dried. A 100 μl aliquot of 0.4% (w/v) sulforhodamine B (SRB) solution in 1% acetic acid was added to each well, and the plates incubated for 10 minutes at room temperature. After staining, unbound dye was removed by washing five times with 1% acetic acid and the plates air dried. Bound stain was solubilized with 10 mM trizma base, and the absorbance read on a plate reader at a wavelength of 515 nm.
By using time zero (Tz), control growth (C), and test growth in the presence of drug at the five concentration levels (Ti), the percentage growth was calculated at each of the drug concentration levels. Percentage growth inhibition was calculated as:
[(Ti−Tz)/(C−Tz)]×100 for concentrations for which Ti>/=Tz
[(Ti−Tz)/Tz]×100 for concentrations for which Ti<Tz.
Three dose response parameters were calculated for each experimental agent. […] The TGI, the drug concentration resulting in total growth inhibition was calculated from Ti=Tz. The LC50 (the concentration of drug resulting in a 50% reduction in the measured protein at the end of the drug treatment as compared to that at the beginning) indicating a net loss of cells following treatment was calculated from [(Ti−Tz)/Tz]×100=−50. Values were calculated for each of these three parameters if the level of activity is reached; however, if the effect was not reached or was exceeded, the value for that parameter is expressed as greater or less than the maximum or minimum concentration tested.

Breast cell lines [2] = tested on: Breast cell lines
Prostate cell lines [3] = tested on: Prostate cell lines
Colon cell lines [4] = tested on: Colon cell lines
Renal cell lines [5] = tested on: Renal cell lines
Melanoma cell lines [6] = tested on: Melanoma cell lines
NSCL cell lines [7] = tested on: NSCL cell lines
CNS cell lines [8] = tested on: CNS cell lines
Leukemia cell lines [9] = conditions: Leukemia
HCT-15 = conditions: HCT-15, Colon, NCI database, cited from earlier work
UACC-62 = conditions: UACC-62, Melanoma, NCI database, cited from earlier work
SNB-19 = conditions: SNB-19, CNS, NCI database, cited from earlier work
Breast cell lines [10] = test: cells
Prostate cell lines [11] = test: cells
Colon cell lines [12] = test: cells
Renal cell lines [13] = test: cells
Melanoma cell lines [14] = test: cells
NSCL cell lines [15] = test: cells
CNS cell lines [16] = test: cells; conditions: Homo sapiens
Leukemia cell lines [17] = test: cells
Ovarian cell lines = test: NCI anticancer screen, by tissue type
[18] = read-out: LC50 (the source's name)

SMILES: Nc1nc2nc[nH]c2c(=S)[nH]1 [6-TG, 6-thioguanine]
- IC50 (A-498 cells): 6.9 ± 4.1 µM
- IC50 (ACHN cells): 2.5 ± 0.8 µM
- median TGI ([1]; all cell lines of the NCI screen): 41.3 µM
- GI50 ([1]; read-out: median GI50): 1.04 µM
- CC50 ([1]; read-out: median LC50): > 100 µM
- median TGI (Breast cell lines [2]): 67.8^# μM
- median TGI (Prostate cell lines [3]): >100 µM
- median TGI (Colon cell lines [4]): 41.2 µM
- median TGI (Renal cell lines [5]): 89.2^# μM
- median TGI (Melanoma cell lines [6]): 15.3 µM
- median TGI (NSCL cell lines [7]): 24.0 µM
- median TGI (CNS cell lines [8]): >100 µM
- median TGI (Leukemia cell lines [9]): 19.4 µM
- GI50 (HCT-15): 1.07 µM
- TGI (HCT-15): 50.9 µM
- CC50 (HCT-15; [18]): > 100 µM
- GI50 (UACC-62): 0.5 µM
- TGI (UACC-62): 4.53 µM
- CC50 (UACC-62; [18]): 74.1 µM
- GI50 (SNB-19): 78.5 µM
- TGI (SNB-19): >100 µM
- CC50 (SNB-19; [18]): > 100 µM
- GI50 (Breast cell lines [10]; read-out: median GI50): 1.48 µM
- CC50 (Breast cell lines [10]; read-out: median LC50): > 100 µM
- GI50 (Prostate cell lines [11]; read-out: median GI50): 1.27 µM
- CC50 (Prostate cell lines [11]; read-out: median LC50): > 100 µM
- GI50 (Colon cell lines [12]; read-out: median GI50): 1.32 µM
- CC50 (Colon cell lines [12]; read-out: median LC50): > 100 µM
- GI50 (Renal cell lines [13]; read-out: median GI50): 1.14 µM
- CC50 (Renal cell lines [13]; read-out: median LC50): > 100 µM
- GI50 (Melanoma cell lines [14]; read-out: median GI50): 1.13 µM
- CC50 (Melanoma cell lines [14]; read-out: median LC50): > 100 µM
- GI50 (NSCL cell lines [15]; read-out: median GI50): 0.91 µM
- CC50 (NSCL cell lines [15]; read-out: median LC50): > 100 µM
- GI50 (CNS cell lines [16]; read-out: median GI50): 1.28 µM
- CC50 (CNS cell lines [16]; read-out: median LC50): > 100 µM
- GI50 (Leukemia cell lines [17]; read-out: median GI50): 0.33 µM
- CC50 (Leukemia cell lines [17]; read-out: median LC50): > 100 µM
- median TGI (Ovarian cell lines; Ovarian): 53.8 µM
- GI50 (Ovarian cell lines; read-out: median GI50): 0.7 µM
- CC50 (Ovarian cell lines; read-out: median LC50): > 100 µM
